Data on 87 molecules can be found in a melting point compilation (Tetko et al.; mined from patent text by program, amines drawn as free bases though some values may be those of a salt).

Residues, ends and D or L forms follow the SMILES beside them. *: point of attachment. Cbz = O=C(OCc1ccccc1)* Where only a bound is given, the exact number is not on record here.

The melting point is the temperature of the solid-liquid transition.

For the molecule `N#Cc1nn(-c2c(Cl)cc(C(F)(F)F)cc2Cl)c(N)c1-c1onc(Br)c1Br`, the melting point amounted to 279 °C.

Take `CN1CC(C(=O)COC(=O)c2ccccc2)CC2c3cccc4[nH]cc(c34)CC21` (configuration not stated): the melting point was in the range of 163 to 165 °C. As to `CCCC1CC(NCC)=C(c2cccc(C(F)(F)F)c2)C1=O` (configuration not stated), the melting point came out at 120 °C. The value for `COc1ccc2cc([C@H](C)C(=O)OCC(=O)COC(=O)c3ccc(CO[N+](=O)[O-])cc3)ccc2c1` was 105 to 107 °C; that for `Cc1ccc(CNCCOc2cccc3[nH]c(=O)[nH]c23)cc1` was 162 to 163 °C; that for `CC(=O)N(C(C)=O)c1cc2c(c(N(C(C)=O)C(C)=O)c1)OC(C(Cl)(Cl)Cl)OC2C(Cl)(Cl)Cl` (configuration not stated) was 182 to 183 °C.

`CCc1nc2c(N)nc3cc(OCCNC(=O)NC(C)C)ccc3c2n1CC1CCOCC1` returned a melting point of 223 to 225 °C. The value for `COc1ccc2[nH]c(=O)cc(CCCl)c2c1` was 231 to 232 °C; that for `CC(c1ccc(-c2ccccc2)c(F)c1)c1csc(NC(=S)Nc2ccccc2)n1` (configuration not stated) was 176 to 177 °C. The value for `CCSc1cc(C)nc(SCC)c1NC(=O)CCCCCCCSc1nc2ccccc2[nH]1` was 166 to 168 °C; that for `O=C1CCSC(=S)N1c1ccccn1` was 157 °C; that for `CS(=O)(=O)c1ccc(-n2nc(C(N)=O)cc2-c2ccc(-c3ccco3)cc2)cc1F` was 239 to 240 °C. Take `CCOC(=O)COc1ccccc1Cn1c(-c2ccc(C(F)(F)F)cc2)c(C)c2cc(OCc3ccccc3)ccc21`: the melting point was found to be 221 °C. The value for `CNCCOc1ccc(C(=O)NC)cc1` was 95 to 96 °C; that for `O=C(NCCO)c1cccc(-c2cccc3nc(C(O)c4cccc(C(F)(F)F)c4)cn23)c1` (configuration not stated) was 169 °C; that for `Cn1cc(-c2cc3cccnc3[nH]2)c2cc(C(=O)NCCC(N)=O)ccc21` was 286 to 288 °C. The value for `C=Cc1cccc2c1-c1ccc3c(c1C(C1(C)CC=CCC1)O2)C(C)=CC(C)(C)N3` (configuration not stated) was 198 to 201 °C; that for `CCOc1cc(N(CC)CC)ccc1C=O` was 58 to 59 °C; that for `CCCc1c(OCCCOc2ccc(C(C)=O)c(OCCCC(=O)O)c2CCC)ccc(C(C)=O)c1O` was 50 to 53 °C. The value for `CN(C)S(=O)(=O)OCCOc1ccc(Cl)cc1` was 54 to 57 °C; that for `NC1CCCC(C(=O)N2CCC(c3[nH]nc4c3C(=O)c3c(NC(=O)NN5CCOCC5)cccc3-4)CC2)C1` (configuration not stated) was 201 to 203 °C.

The molecule `CCOc1ccc(-c2nc(-c3cccc(C(N)=NO)n3)cs2)cc1OCC` registered a melting point of 218 to 220 °C. The value for `Cc1noc(NS(=O)(=O)c2cc(Cl)ccc2Cl)c1Br` was 148 to 150 °C; that for `COc1ccc(N2C(=O)NC(=O)C23CCCCC3)cc1` was 203 to 205 °C; that for `COC(=O)C(CCSC)NC(=O)c1ccc(NC(=O)Cc2cn(S(=O)(=O)c3ccc(C)cc3)cn2)cc1-c1ccccc1` (configuration not stated) was 202 to 203 °C. The value for `O=C(O)CCn1c(=O)n2n(c1=O)C(C(=O)O)C=CC2` (configuration not stated) was 172 to 175 °C; that for `COC(=O)CCCCCC(O)c1ccc(-n2ccnc2)cc1` (configuration not stated) was 77 to 78 °C.

`COCc1cnc2c(NC(=O)c3c(Cl)cccc3Cl)cccc2c1CO` had a melting point of 199 to 200 °C.

`CCOC(=O)CSc1nc(C(C)(C)C)n[nH]1` came in with a melting point of 93 °C. The value for `Oc1ccc(Cc2ccccc2)c2c1NCCC2` was 135 to 136 °C; that for `CC(=C1SC(=O)NC1=O)c1ccc(OCCOc2c(-c3ccc(F)c(F)c3)n(C)c3ccc(F)cc3c2=O)c(Cl)c1` was 215 to 218 °C. Molecule `CC(=O)c1noc2ccccc12` registered a melting point of 30 to 32 °C. The value for `C#CCOc1cc(-c2nn(C)c(S(C)(=O)=O)c2C)c(F)cc1Cl` was 123 to 124 °C; that for `COc1nccc(C)c1NC(=O)c1cc(C)nc2c1c(C)nn2-c1ccccc1` was 172 to 174 °C; that for `COc1nc2cc(Br)c3c(c2nc1OC)CCN(C)C3` was 162 °C. In turn, `COc1cc(C(C)=O)ccc1OCCN1CCN(c2nsc3ccccc23)CC1` gave a melting point of 98 to 100 °C.

Molecule `CCOc1ccccc1-c1cc(NC(=O)C2CCN(CC)CC2)ncn1` had a melting point of 65 to 67 °C. Regarding `COc1cc(C(=O)NNC(=O)c2occ(-c3ccccc3)c2-c2ccccc2)ccc1O`, the melting point was 216 to 220 °C.

For the molecule `CCC(CC)C(=O)Nc1ccc2ncn3c(=O)c(C(=O)O)cnc3c2c1`, the melting point is 295 to 298 °C. Regarding `COc1ccc(-c2nc(Sc3ccc(Cl)cc3)cc(N3CCN(C)CC3)n2)cc1`, the melting point was in the range of 143 to 145 °C. The value for `O=C(c1ccccc1CBr)c1cc(Cl)ccc1CBr` was 152 to 153 °C. The value for `Cc1cc(Oc2cccc(C(F)(F)F)c2)nn1C(=O)Nc1ccc(Cl)cc1` was 73 to 74 °C.

Molecule `O=C(O)C(O)=CC(=O)c1ccc(Cl)c(Cl)c1` returned a melting point of 180 to 181 °C. On to `O=C(COCc1ccccc1)NC(C(=O)Nc1n[nH]c(=S)s1)c1ccccc1` (configuration not stated), for which the melting point is 96 to 100 °C. The molecule `COc1ccc(C2=NN(Cc3cccc(C(=O)NC4CCCC4)c3)C(=O)CC2)cc1OC` gave a melting point of 179 °C.

For the molecule `CC(C)(C)OC(=O)NC(CO)C(=O)c1ccccc1` (configuration not stated), the melting point lay in the range of 69 to 71 °C. The value for `CCOC(=O)C1n2c3ccccc3c3c4c(c5c6ccccc6n(c5c32)CS1(=O)=O)C(=O)NC4=O` (configuration not stated) was 298 to 300 °C; that for `CN(C)CCNC(=O)c1cc(S(C)(=O)=O)c(Cl)cc1NCc1ccco1` was 102 to 105 °C; that for `c1ccc2c(c1)CCc1ccc(-c3nnn[nH]3)cc1S2` was 205 °C. As to `CNC(=NC#N)NCCSCc1cccc(NC(N)=NCC(F)(F)F)n1`, the melting point fell in the range of 137 to 140 °C. The value for `CC(C)(C)OC(=O)Nc1ccc(-c2ccc(S(=O)(=O)n3ccc(/C=C/C(=O)NOC4CCCCO4)c3)cc2)cn1` (configuration not stated) was 140 to 146 °C. The value for `CN1CCN(C(=O)c2ccc([N+](=O)[O-])cc2[N+](=O)[O-])CC1` was 130 to 132 °C; that for `CCOC(=O)c1cc(N2C(=O)C3=C(CCCC3)C2=O)ccc1O` was 90 °C. The value for `O=C1CNc2ncc(I)cc2N1Cc1cc(Cl)ccc1Cl` was more than 200 °C; that for `CC(C)C1CC(=O)Nc2nc(C#N)c3ncccc3c21` (configuration not stated) was 220 °C. `CC(C#Cc1cccc(Oc2ccccc2)c1)N(O)C(N)=O` (configuration not stated) displayed a melting point of 110 to 115 °C. Molecule `CCOC(=O)C(C#N)C1NC(=O)c2sccc2-n2cccc21` (configuration not stated) came in with a melting point of 195 °C.

`C=CCc1c(OCCCSCc2nnn[nH]2)ccc(C(C)=O)c1O` came in with a melting point of 129 to 132 °C. In turn, `Clc1cc2c(cc1Cl)Nc1ccccc1C(NCc1cccnc1)=N2` registered a melting point of 209 to 210 °C. With `CCC1=C(C)C(=O)NC1=CBr`, the melting point fell in the range of 250 to 251 °C.

As to `CC(=O)NCC1CN(c2ccc(N(C)C=O)c(F)c2)C(=O)O1` (configuration not stated), the melting point was in the range of 116 to 117 °C. Turning to `CC(C)(C)OC(=O)N1CCN(c2cccc(N)c2)CC1`, the melting point was 218 °C. Molecule `COc1ccc(C(=O)c2cc(-c3ccc(S(C)(=O)=O)cc3)c(N3CCOCC3)s2)cc1` displayed a melting point of 154 °C. As for `CC(=CN=Cc1ccccc1Cl)c1cccs1`, the melting point came to 102 °C. For the molecule `Cc1noc(NS(=O)(=O)c2ccccc2-c2ccc(-c3ccno3)cc2)c1C`, the melting point lay within 85 to 90 °C. Consider `Cc1cc(C)c(Cc2nc(C)nc(O)c2C)c(C)c1`, for which the melting point lay within 260 to 262 °C. For `COc1ccc(-c2ccc3nnn(Cc4ccc5ncccc5c4)c3n2)cc1OC`, the melting point lay in the range of 149 to 152 °C.

`CCc1cc(C#N)cc(C(=O)Nc2ccn(C)n2)n1`: the melting point is 164 °C. The molecule `COCC(OC(C)=O)C1CC(=O)C2(C)CCC3C(CCC4=CC(=O)C=C(C)C43C)C12` (configuration not stated) showed a melting point of 184 to 185 °C. With `O=c1c(-c2ccccc2)cc(CO)c2n1CCc1ccsc1-2`, the melting point lay in the range of 199 to 200 °C.

`O=c1nc(NCCCn2ccnc2)n2c3c1cnn3C(c1cccc(F)c1)=CC2`: the melting point was in the range of 256 to 258 °C.

In the case of `O=C(c1ccc2n1Cc1ccccc1N(S(=O)(=O)c1ccc(Br)cc1)C2)C(Cl)(Cl)Cl`, the melting point lay in the range of 182 to 183 °C. For `COC(=O)NNC(=S)Cc1ccccc1`, the melting point was 93.5 to 94 °C. The value for `Cc1cc(C)nc(NC(=O)NS(=O)(=O)N2CCCC2)n1` was 180 to 181 °C; that for `COc1cc(C)n2nc(SCc3ccccc3)nc2n1` was 112 to 115 °C; that for `O=C(O)C1=C(CCl)CS[C@@H]2[C@H](NC(=S)Cc3cc(Cl)ccc3Cl)C(=O)N12` was 125 °C. The value for `O=[N+]([O-])c1ccc(Cl)c(C=Cc2nc3ccccc3o2)c1` was 230 °C. The value for `N#Cc1cc(S(=O)(=O)c2ccc([N+](=O)[O-])cc2)cc(Br)n1` was 158 to 160 °C; that for `CSc1nc(C(F)(F)F)c(Br)c(=O)[nH]1` was 215 to 216 °C; that for `C=CCn1c(=O)c2c(nc(/C=C/c3cc(OC)c(OC(=O)c4ccccc4)c(OC)c3)n2C)n(CC=C)c1=O` was 179 to 180 °C.

`COC(=O)C(Cc1ccc(O)cc1)NC(=O)C(CO)NC(=O)C(Cc1c[nH]c2ccccc12)NC(=O)C(CCC(N)=O)NC(=O)OCc1ccccc1` (configuration not stated) (Cbz-QWSY-OMe; configuration not given here): the melting point lay in the range of 238 to 241 °C.

Molecule `O=C1c2ccc(Cl)cc2C(=O)N1CCN1CCC(c2noc3cc(F)ccc23)CC1` showed a melting point of 170 to 171 °C. As to `CCCCNS(=O)(=O)CC(O)C(O)C(CC1CCCCC1)NC(=O)c1ccccn1` (configuration not stated), the melting point was in the range of 167 to 170 °C. Turning to `Nc1ccc2c3c(cccc13)C(=O)N([C@@H]1CN3CCC1CC3)C2=O`, the melting point lay within 305 to 308 °C. In the case of `CCOC(=O)c1cc(=O)c2c(C)c(Cl)c(C)cc2o1`, the melting point is 114 to 116 °C.

The molecule `O=[N+]([O-])c1cc(S(=O)c2ccc(-c3ccc(Br)cc3)cc2)ccc1Cl` (configuration not stated) displayed a melting point of 173 to 175 °C. Take `CCCC(=O)C1=C(O)CC(c2ccc3occc3c2)CC1=O` (configuration not stated): the melting point came out at 71 °C.
